Test results from patent publication US20250346592A1 (Celgene Corporation, priority 2022, published 2025).

Molecular target: hPAD4 enzyme (Homo sapiens (Human), UniProt Q9UM07)
Assay: RFMS2 assay (RapidFire mass spectrometry, TSTGGRQGSHH peptide substrate)
Assay type: biochemical
Conditions: 35 nM recombinant human PAD4, 500 μM TSTGGRQGSHH peptide, 30 minutes at room temperature; read-out: RFMS 2 IC50
Outline: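 Recombinant human PAD4 (35 nM) with 500 μM TSTGGRQGSHH peptide in HEPES pH 7.4, 200 mM NaCl, 2 mM CaCl2, 5 mM DTT, 1.2% DMSO, 30 min at room temperature; 3-fold compound series, top 20 μM. Quenched with formic acid; substrate and citrullinated product quantified by RapidFire MRM mass spectrometry for IC50.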

Chain of hPAD4 enzyme (Q9UM07 whole entry): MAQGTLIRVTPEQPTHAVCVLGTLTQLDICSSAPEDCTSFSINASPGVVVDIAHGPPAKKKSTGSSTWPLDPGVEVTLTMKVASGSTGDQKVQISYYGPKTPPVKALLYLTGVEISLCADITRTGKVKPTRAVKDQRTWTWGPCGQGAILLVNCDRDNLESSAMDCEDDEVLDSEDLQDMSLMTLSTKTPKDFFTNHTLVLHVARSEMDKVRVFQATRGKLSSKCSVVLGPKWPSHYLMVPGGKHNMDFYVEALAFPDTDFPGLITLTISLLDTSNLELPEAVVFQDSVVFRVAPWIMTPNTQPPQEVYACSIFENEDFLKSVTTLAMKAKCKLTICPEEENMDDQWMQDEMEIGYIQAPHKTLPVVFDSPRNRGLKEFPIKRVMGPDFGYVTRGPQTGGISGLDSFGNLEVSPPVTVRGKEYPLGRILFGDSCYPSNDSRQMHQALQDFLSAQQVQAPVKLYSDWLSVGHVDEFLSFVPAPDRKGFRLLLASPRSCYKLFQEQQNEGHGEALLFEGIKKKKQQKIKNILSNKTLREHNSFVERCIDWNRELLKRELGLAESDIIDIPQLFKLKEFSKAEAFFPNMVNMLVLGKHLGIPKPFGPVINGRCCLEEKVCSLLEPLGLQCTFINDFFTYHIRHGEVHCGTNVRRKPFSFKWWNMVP

| IC50 [nM] | SMILES |
| --- | --- |
| 501 to 1000 | COc1nccc2cc(-c3nc4cc5c(cc4n3C)CCN(C[C@H](N)CF)C5=O)n(CC3CC3)c12 [Example 54, (S)-6-(2-amino-3-fluoropropyl)-2-(1-(cyclopropylmethyl)-7-methoxy-1H-pyrrolo[2,3-c]pyridin-2-yl)-1-methyl-1,6,7,8-tetrahydro-5H-imidazo[4,5-g]isoquinolin-5-one] |
| 501 to 1000 | COC1CC(Cn2c(-c3nc4cc5c(cc4n3C)CCN(C[C@@H](C)N)C5=O)cc3ccccc32)C1 (stereo partly drawn) [Example 75, (R)-6-(2-aminopropyl)-2-(1-((3-methoxycyclobutyl)methyl)-1H-indol-2-yl)-1-methyl-1,6,7,8-tetrahydro-5H-imidazo[4,5-g]isoquinolin-5-one] |
| 101 to 500 | Cn1c(-c2cc3cccc(OCCC4CNC(=O)C4)c3n2CC2CC2)nc2cc3c(cc21)CCN(C[C@H](N)CF)C3=O (single isomer, unassigned) [Example 178] |
| 501 to 1000 | COCCn1c(-c2nc3cc4c(cc3n2C)CCN(C[C@H](N)CF)C4=O)cc2ccccc21 [Example 94, (S)-6-(2-amino-3-fluoropropyl)-2-(1-(2-methoxyethyl)-1H-indol-2-yl)-1-methyl-1,6,7,8-tetrahydro-5H-imidazo[4,5-g]isoquinolin-5-one] |
| 101 to 500 | Cn1c(-c2cc3cccc(OCCn4cccc4)c3n2CC2CC2)nc2cc3c(cc21)CCN(C[C@H](N)CF)C3=O [Example 180, (S)-2-(7-(2-(1H-pyrrol-1-yl)ethoxy)-1-(cyclopropyl-methyl)-1H-indol-2-yl)-6-(2-amino-3-fluoropropyl)-1-methyl-1,6,7,8-tetrahydro-5H-imidazo[4,5-g] isoquinolin-5-one] |
| 11 to 100 | Cn1c(-c2cc3cccc(OCCc4cnco4)c3n2CC2CC2)nc2cc3c(cc21)CCN(C[C@H](N)CF)C3=O [Example 194, (S)-6-(2-amino-3-fluoropropyl)-2-(1-(cyclopropylmethyl)-7-(2-(oxazol-5-yl)ethoxy)-1H-indol-2-yl)-1-methyl-1,6,7,8-tetrahydro-5H-imidazo[4,5-g]isoquinolin-5-one] |
| > 1000 | Cn1c(-c2cc3ccccc3n2Cc2ccon2)nc2cc3c(cc21)CCN(C[C@H](N)CF)C3=O [Example 98, (S)-6-(2-amino-3-fluoropropyl)-2-(1-(isoxazol-3-ylmethyl)-1H-indol-2-yl)-1-methyl-1,6,7,8-tetrahydro-5H-imidazo[4,5-g]isoquinolin-5-one] |
| 101 to 500 | COc1cccc2cc(-c3nc4cc5c(cc4n3C)CCN(C[C@H](N)CF)C5=O)n(Cc3ccnnc3)c12 [Example 144, (S)-6-(2-amino-3-fluoropropyl)-2-(7-methoxy-1-(pyridazin-4-ylmethyl)-1H-indol-2-yl)-1-methyl-1,6,7,8-tetrahydro-5H-imidazo[4,5-g]isoquinolin-5-one] |
| 11 to 100 | Cn1c(-c2cc3cccc(OCc4cn[nH]c4)c3n2CC2CC2)nc2cc3c(cc21)CCN(C[C@H](N)CF)C3=O [Example 193, (S)-2-(7-((1H-pyrazol-4-yl)methoxy)-1-(cyclopropylmethyl)-1H-indol-2-yl)-6-(2-amino-3-fluoropropyl)-1-methyl-1,6,7,8-tetrahydro-5H-imidazo[4,5-g]isoquinolin-5-one] |
| > 1000 | C[C@@H](N)CN1CCc2cc3c(cc2C1=O)nc(-c1cc2ccccc2n1Cc1ccncc1)n3C [Example 81, (R)-6-(2-aminopropyl)-1-methyl-2-(1-(pyridin-4-ylmethyl)-1H-indol-2-yl)-1,6,7,8-tetrahydro-5H-imidazo[4,5-g]isoquinolin-5-one] |
| 501 to 1000 | Cn1c(-c2cc3ccc(C(C)(C)C)cc3n2CC2CC2)nc2cc3c(cc21)CCN(C[C@H](N)CF)C3=O [Example 55, (S)-6-(2-amino-3-fluoropropyl)-2-(6-(tert-butyl)-1-(cyclopropylmethyl)-1H-indol-2-yl)-1-methyl-1,6,7,8-tetrahydro-5H-imidazo[4,5-g]isoquinolin-5-one] |
| 101 to 500 | Cc1nc(C)n(CCOc2cccc3cc(-c4nc5cc6c(cc5n4C)CCN(C[C@H](N)CF)C6=O)n(CC4CC4)c23)n1 [Example 162, (S)-6-(2-amino-3-fluoropropyl)-2-(1-(cyclopropyl-methyl)-7-(2-(3,5-dimethyl-1H-1,2,4-triazol-1-yl)ethoxy)-1H-indol-2-yl)-1-methyl-1,6,7,8-tetrahydro-5H-imidazo[4,5-g]isoquinolin-5-one] |
| 101 to 500 | Cn1c(-c2cc3ccccc3n2Cc2ccno2)nc2cc3c(cc21)CCN(C[C@H](N)CF)C3=O [Example 93, (S)-6-(2-amino-3-fluoropropyl)-2-(1-(isoxazol-5-ylmethyl)-1H-indol-2-yl)-1-methyl-1,6,7,8-tetrahydro-5H-imidazo[4,5-g]isoquinolin-5-one] |
| 101 to 500 | COc1cccc2cc(-c3nc4cc5c(cc4n3C)CCN(C[C@H](N)CF)C5=O)n(Cc3ccoc3)c12 [Example 138, (S)-6-(2-amino-3-fluoropropyl)-2-(1-(furan-3-ylmethyl)-7-methoxy-1H-indol-2-yl)-1-methyl-1,6,7,8-tetrahydro-5H-imidazo[4,5-g]isoquinolin-5-one] |
| > 1000 | CCn1c(-c2nc3cc4c(cc3n2C)CCN(C[C@H](N)CF)C4=O)cc2ccccc21 [Example 134, (S)-6-(2-amino-3-fluoropropyl)-2-(1-ethyl-1H-indol-2-yl)-1-methyl-1,6,7,8-tetrahydro-5H-imidazo[4,5-g]isoquinolin-5-one] |
| 101 to 500 | Cc1ccc2cc(-c3nc4cc5c(cc4n3C)CCN(C[C@H](N)CF)C5=O)n(CC3CC3)c2c1 [Example 47, (S)-6-(2-amino-3-fluoropropyl)-2-(1-(cyclopropylmethyl)-6-methyl-1H-indol-2-yl)-1-methyl-1,6,7,8-tetrahydro-5H-imidazo[4,5-g]isoquinolin-5-one] |
| > 1000 | Cn1nccc1Cn1c(-c2nc3cc4c(cc3n2C)CCN(C[C@H](N)CF)C4=O)cc2ccccc21 [Example 96, (S)-6-(2-amino-3-fluoropropyl)-1-methyl-2-(1-((1-methyl-1H-pyrazol-5-yl)methyl)-1H-indol-2-yl)-1,6,7,8-tetrahydro-5H-imidazo[4,5-g]isoquinolin-5-one] |
| > 1000 | C[C@@H](N)CN1CCc2cc3c(cc2C1=O)nc(-c1cc2ccncc2n1CC1CC1)n3C [Example 24, (R)-6-(2-aminopropyl)-2-(1-(cyclopropylmethyl)-1H-pyrrolo[2,3-c]pyridin-2-yl)-1-methyl-1,6,7,8-tetrahydro-5H-imidazo[4,5-g]isoquinolin-5-one] |
| 501 to 1000 | C[C@@H](N)CN1CCc2cc3c(cc2C1=O)nc(-c1cc2cc(Cl)ccc2n1CC1CC1)n3C [Example 34, (R)-6-(2-aminopropyl)-2-(5-chloro-1-(cyclopropylmethyl)-1H-indol-2-yl)-1-methyl-1,6,7,8-tetrahydro-5H-imidazo[4,5-g]isoquinolin-5-one] |
| 501 to 1000 | C[C@@H](N)CN1CCc2cc3c(cc2C1=O)nc(-c1cc2cccc(C#N)c2n1CC1CC1)n3C [Example 27, (R)-2-(6-(2-aminopropyl)-1-methyl-5-oxo-5,6,7,8-tetrahydro-1H-imidazo[4,5-g]isoquinolin-2-yl)-1-(cyclopropylmethyl)-1H-indole-7-carbonitrile] |
| > 1000 | COCCn1c(-c2nc3cc4c(cc3n2C)CCN(C[C@H](N)CF)C4=O)cc2ccc(OC)nc21 [Example 105, (S)-6-(2-amino-3-fluoropropyl)-2-(6-methoxy-1-(2-methoxyethyl)-1H-pyrrolo[2,3-b]pyridin-2-yl)-1-methyl-1,6,7,8-tetrahydro-5H-imidazo[4,5-g]isoquinolin-5-one] |
| 501 to 1000 | C[C@@H](N)CN1CCc2cc3c(cc2C1=O)nc(-c1cc2ccc(C4COC4)cc2n1CC1CC1)n3C [Example 42, (R)-6-(2-aminopropyl)-2-(1-(cyclopropylmethyl)-6-(oxetan-3-yl)-1H-indol-2-yl)-1-methyl-1,6,7,8-tetrahydro-5H-imidazo[4,5-g]isoquinolin-5-one] |
| 501 to 1000 | Cn1c(-c2cc3cccc(C#N)c3n2Cc2ccno2)nc2cc3c(cc21)CCN(C[C@H](N)CF)C3=O [Example 148, (S)-2-(6-(2-amino-3-fluoropropyl)-1-methyl-5-oxo-5,6,7,8-tetrahydro-1H-imidazo[4,5-g]isoquinolin-2-yl)-1-(isoxazol-5-ylmethyl)-1H-indole-7-carbonitrile] |
| 501 to 1000 | Cn1c(-c2cc3cccc(OCC(C)(C)O)c3n2CC2CC2)nc2cc3c(cc21)CCN(C[C@H](N)CF)C3=O [Example 214, (S)-6-(2-amino-3-fluoropropyl)-2-(1-(cyclopropylmethyl)-7-(2-hydroxy-2-methylpropoxy)-1H-indol-2-yl)-1-methyl-1,6,7,8-tetrahydro-5H-imidazo[4,5-g]isoquinolin-5-one] |
| 101 to 500 | COc1cccc2cc(-c3nc4cc5c(cc4n3C)CCN(C[C@H](N)CF)C5=O)n(Cc3cc[nH]n3)c12 [Example 115, (S)-2-(1-((1H-pyrazol-3-yl)methyl)-7-methoxy-1H-indol-2-yl)-6-(2-amino-3-fluoropropyl)-1-methyl-1,6,7,8-tetrahydro-5H-imidazo[4,5-g]isoquinolin-5-one] |
| > 1000 | Cc1cc(Cn2c(-c3nc4cc5c(cc4n3C)CCN(C[C@H](N)CF)C5=O)cc3ccccc32)no1 [Example 100, (S)-6-(2-amino-3-fluoropropyl)-1-methyl-2-(1-((5-methylisoxazol-3-yl)methyl)-1H-indol-2-yl)-1,6,7,8-tetrahydro-5H-imidazo[4,5-g]isoquinolin-5-one] |
| 501 to 1000 | COC(=O)N[C@H](C)COc1cccc2cc(-c3nc4cc5c(cc4n3C)CCN(C[C@H](N)CF)C5=O)n(CC3CC3)c12 [Example 209, methyl ((R)-1-((2-(6-((S)-2-amino-3-fluoropropyl)-1-methyl-5-oxo-5,6,7,8-tetrahydro-1H-imidazo[4,5-g]isoquinolin-2-yl)-1-(cyclopropylmethyl)-1H-indol-7-yl)oxy)propan-2-yl) carbamate] |
